Laboratory results from patent publication US20150268219A1, “Method for Renal Transplantation” (Universite Paris Diderot Paris 7, priority 2014, published 2015).

Legend:
Type in all cases: cell-based, C57BL/6 mice
[1] = test system: bone marrow-derived macrophages (BMM); test: Cytokine production in culture supernatant of BMM stimulated with LPS; conditions: LPS-Fe-BMM vs LPS-BMM
Protocol: (§1) Bone Marrow derived macrophages (BMM) were prepared from the femur and tibias of C57BL/6 mice between 6 and 8 weeks of age. Bone marrow cells were cultured for 7-8 days at 37° C. and 5% CO2 in at 2×10^6 cells/ml in RPMI 1640 medium (Invitrogen) containing 10% FBS (v/v; Biowest), penicillin/streptomycin and 15% supernatant of L929 cells (v/v) as a source of M-CSF in the presence or in the absence of FeCl3-nitrilotriacetate (FeCl3-NTA; 10-60 μM as indicated). In some conditions, lipopolysaccharide (LPS) (150 ng/ml) (Sigma-Aldrich), peptidoglycan (PGN) (15 μg/ml), Poly-IC (50 μg/ml) (all from cayla-Invivogen, Toulouse, France) were added 12 hours before BBMs analysis on day 8.
Kidney tissues were homogenized in 300 μl of RIPA buffer supplemented with phosphatase and protease inhibitors cocktail (Sigma-Aldrich) for 30 s. Samples were cooled on ice for 30 min. Lysates were finally centrifuged at 10 000 g at 4° C. The cytokines IL-6, TNF-α, MCP-1, IL-10 and IL-12 were measured simultaneously by cytometric bead array (CBA) using mouse inflammation kit (according to the manufacturer's instruction (BD biosciences). Results were analyzed using FCAP array software. Proteins were quantified in supernatants by the bicinchoninic acid (BCA) method according to the manufacturer's instructions (Pierce). Cytokine concentrations were normalized to total protein concentration and expressed as picograms per milligram of total tissue protein.

[2] = test system: bone marrow-derived macrophages (BMM); test: Reactive oxygen species (ROS) assessment by DCFH fluorescence; conditions: BMM differentiated with 10 or 20 μM FeCl3-NTA for 7 days, LPS 150 ng/mL 3 hours; vs control macrophages
Protocol: as §1
Bone-marrow derived macrophages (BMM) were stimulated by LPS (150 ng/ml) to induce ROS production. After 3 hours, BMM were washed with PBS and 5 μM dichlorodihydrofluorescein-diacetate (DCFH-DA) was added and incubated for 20 min at 37° C. Cells were washed again and taken to flow cytometer to ROS analysis. FeCl3-NTA was used as mentioned before and NaOH was used as vehicle.

[3] = test system: bone marrow-derived macrophages (BMM); test: Differentiation and TLR-agonist activation (CD86) of bone marrow-derived macrophages cultured with iron
Protocol: as §1
Cells suspensions were prepared from cell culture or tissue and were incubated with anti-FcγR mAb 2.4G2 to block IgG receptors before cell staining for specific surface markers. Cells (1·10^6) were then stained at 4° C. in PBS containing 1% BSA with antibodies against mouse CD11b (M1/70, BioLegend), F4/80 (BM8, eBioscience), CD86 (GL-1, BioLegend), Ly6G (1A8, BD Biosciences), Ly6C (HK1.4, BioLegend). The presence of macrophages (CD11b^+F4/80^+Ly6G^− cells) in the peritoneum was analyzed by flow cytometry.

[4] = test system: bone marrow-derived macrophages (BMM); test: Comparative gene-chip analysis of macrophages treated or not with soluble iron and LPS; conditions: data not shown
Protocol: as §1
To further investigate whether iron load could influence macrophage activation, the inventors analyzed responses to TLR agonists. […] Increased iron levels in cultures promoted macrophage unresponsiveness to LPS both when it was added at the onset of cultures from primary bone marrow progenitors (day 0) or to cultures of almost completely differentiated cells (90% CD11b+ and F4/80+BMM; day 4) (data not shown). Thus, increased extracellular iron load impairs macrophage activation. To gain insight into the molecular mechanisms involved in iron load-dependent inhibition of macrophage inflammatory responses, the inventors performed comparative gene-chip analysis of macrophages treated or not with soluble iron (Fe-NTA, 60 μM) and subjected or not to LPS treatment. Venn diagram analysis from Affymetrix® microarray chips confirmed that the overall response to LPS differed between control (BMM) and iron-treated (Fe-BMM) macrophages (data not shown). Comparison Gene Ontology (GO) analysis was further performed to test the biological relevance of genes differing between these conditions.

[5] = 60 μM, LPS-Fe-BMM compared to LPS-BMM

## FeCl3-nitrilotriacetate [Fe-NTA]
[1]
  secretion of IL-6: impaired secretion
  secretion of MCP-1: impaired secretion
  secretion of TNF-α: impaired secretion
[2]
  ROS responses to LPS stimulation: impaired
[3]; BMM cultured with 20 or 60 μM iron, LPS 150 ng/mL overnight
  CD86 up-regulation in response to TLR4 agonist (LPS): not able to up-regulate CD86
[3]; BMM cultured with 20 or 60 μM iron, PGN overnight
  CD86 up-regulation in response to TLR2 agonist (PGN): not able to up-regulate CD86
[3]; BMM cultured with 20 or 60 μM iron, poly-IC overnight
  CD86 up-regulation in response to TLR3 agonist (poly I:C): not able to up-regulate CD86
[3]; BMM differentiated with 20 μM and 60 μM, data not shown
  macrophage differentiation (cell morphology, CD11b and F4/80 expression): not affected
[4]; [5]
  genes implicated in inflammatory response: downregulated
  genes involved in NF-κB responses: down-regulated
[4]; Fe-BMM compared to control cells
  expression of genes involved in anti-oxidant responses: Increased expression
[4]; increased extracellular iron levels
  expression of genes characterizing M1 or M2 phenotypes: inhibited
